The text below walks through data of PMC9467556, “Identification of novel pyrrolopyrimidine and pyrrolopyridine derivatives as potent ENPP1 inhibitors” (Journal of Enzyme Inhibition and Medicinal Chemistry, 2022).

In general, AUC refers to the area under the concentration-time curve, a measure of exposure. A high value points to high exposure. As usually defined, the AUC(0-t) is the area under the concentration-time curve up to a stated or last time point. A lower AUC(0-t) goes with low exposure. By Cmax is commonly meant the maximum level reached in the sampled fluid or tissue. The Tmax is the time from dosing to the highest level. The term half-life denotes how long it takes for the measured level to halve. Higher therefore signals slow loss. What is called bioavailability is dose-corrected exposure relative to a reference, in per cent. Lower therefore signals poor availability.

The nature of data set [1]: liver microsomal stability. The class given is in vitro ADME, rat. To be noted: % remaining during 30 min at 1 µM. In general terms: Liver microsomes are a subcellular fraction often used to study metabolism.
A short description of data set [2]: liver microsomal stability. The class given is in vitro ADME, mouse. Conditions: % remaining during 30 min at 1 µM.
Data set [3] can be described thus: pharmacokinetics in BALB/c mice. The class given is in vivo.
Data set [4] relates to phosphorylation of IRF3 in THP-1 cells. The data set is described as follows: western blot of STING downstream signalling. The format is cell-based, human. To be noted: cGAMP (1 μg/mL) then 18p, 6 h. On the procedure: (§1) To evaluate whether 18p induced desired immune response via activation of STING pathway, we investigated the activation of downstream effector proteins, IRF3 and STAT1 that were known as major regulatory proteins of STING and IFN-β, respectively.
(§2) Figure 6. Western blot analysis for STING downstream signalling pathway. THP-1 cells were treated with cGAMP (1 μg/mL) first, and then treated with either DMSO or 18p at indicated concentration for 6 h. Tubulin was used as a loading control.
(§3) Cells were washed by PBS and harvested with RIPA buffer (Bioseasang). After centrifugation with 20,000 × g for 20 min at 4 °C. Cell lysates were separated by SDS-polyacrylamide gel electrophoresis and transferred on PVDF membranes through the Trans-Blot Turbo Transfer System (Bio-Rad). The membranes were blocked in 5% BSA in TBST for 1 h at room temperature and followed by incubation with primary antibody solution for overnight. […] After washing with TBST, all antibodies were detected by anti-rabbit-HRP-linked secondary antibody (Cell signalling/no. 7074, 1:3000). β-Tubulin was used as a loading control for the amount of total protein. Luminescence signal was detected using ECL reagent and immunoreactive bands were captured with the ChemiDoc imaging systems (Bio-Rad).
In general terms: A western blot detects proteins with antibodies after separation by electrophoresis.

Data set [5] relates to phosphorylation of STAT1 in THP-1 cells. Description: western blot of STING downstream signalling. The class given is cell-based, human. To be noted: cGAMP (1 μg/mL) then 18p, 6 h. The protocol: as §1, §2, §3

Where a name gives a salt, the structure may show the parent alone. Some results are limits rather than exact numbers.

With `CC1(CNS(N)(=O)=O)CCN(c2ncnc3[nH]ccc23)CC1` [18p, N-((4-Methyl-1-(7H-pyrrolo[2,3-d]pyrimidin-4-yl)piperidin-4-yl)methyl)methanesulfamide hydrochloride], in data set [1], the “Microsomal stability (%) Rat” value worked out at 96%. Besides, the “Microsomal stability (%) Mouse” value in data set [2] is recorded as 83%. Also, the “CI” value in data set [3] (IV, 1 mg/kg) was 125 mL/min/kg. Also, in data set [3] (mouse, plasma, IV, 1 mg/kg), the AUC worked out at 126 ng·h/mL, the AUC(0-t) turned out to be 125 ng·h/mL, the Cmax worked out at 303 ng/mL and the Tmax is 4.98 min. Besides, the half-life in data set [3] (mouse, plasma, IV, 1 mg/kg) was 15 min. For the same compound, the Vd in data set [3] (mouse, plasma, IV, 1 mg/kg, read-out: Vss) came to 2.3 L/kg. The bioavailability in data set [3] (mouse, plasma, PO 10 mg/kg vs IV 1 mg/kg) is greater than 100%. In data set [3] (mouse, plasma, PO, 10 mg/kg), the AUC stood at 1700 ng·h/mL, the AUC(0-t) was determined as 1690 ng·h/mL, the Cmax worked out at 1550 ng/mL and the Tmax was 30 min. The same compound had a half-life in data set [3] (mouse, plasma, PO, 10 mg/kg) of 93.6 min. Also, the “phosphorylation of IRF3” value in data set [4] is “increased phosphorylation of IRF3 and STAT1 was observed in dose-dependent manner”. Besides, the “phosphorylation of STAT1” value in data set [5] is “increased phosphorylation of IRF3 and STAT1 was observed in dose-dependent manner”.
